Where no end group is shown, it is not given here. [ ]: non-standard residue; d: D form. Aib = CC(C)(N)C(=O)O; Ahx = NCCCCCC(=O)O
Test system: HeLa cell (Human cervix adenocarcinoma cell)
Assay: Cell membrane penetrating performance evaluation (flow cytometry of fluorescein-labelled peptide conjugates)
Assay type: cell-based
Conditions: 2 μM peptide conjugate, 37° C., 2 hours, ratio to Comparative example 2 = (Fn−F1)/(F2−F1), mode values, flow cytometer
Method: Test example 1: Cell Membrane Penetrating Performance Evaluation
HeLa cell (Human cervix adenocarcinoma cell) was cultivated in a culture fluid containing 2 μM of the peptide conjugate of Examples 1 to 9 or Comparative examples 1 to 6 at 37° C. for 2 hours. Then, the cell was collected and stained with a propidium iodide solution to measure a fluorescence intensity using a flow cytometer, and a fluorescence intensity ratio to Comparative example 2 was calculated in accordance with the following formula.
Fluorescence intensity ratio=(Fn−F1)/(F2−F1)
Fn: Fluorescence intensity mode value of tested compound
F1: Fluorescence intensity mode value of tested compound of Comparative example 1
F2: Fluorescence intensity mode value of tested compound of Comparative example 2

Row | Substance | Fluorescence intensity ratio
1 | F-Ahx-(cargo peptide)-(Arg)9-(Gly)3-(Leu-Leu-Aib)-NH2 (F[Ahx]CGGSGGSCRRRRRRRRRGGGLL[Aib]-NH2; not fully specified (bridges); cysteine pairing not given here) [Example 8] | 2.74
2 | F-Ahx-(cargo peptide)-(Leu-Leu-Ala)-(Gly)3-(Arg)9-NH2 (F[Ahx]CGGSGGSCLLAGGGRRRRRRRRR-NH2; not fully specified (bridges); cysteine pairing not given here) [Example 9] | 3.34
